This is an account of results in ChEMBL document CHEMBL1130497, “Novel 7-hydroxycoumarin based fluorescent labels” (Bioorg Med Chem Lett, 1997).

This data set can be described thus: pKa value was determined. It counts as physicochemical.

The molecule `O=C(O)CCCCc1cc(=O)oc2c(CN3CCCC3)c(O)ccc12` returned a pKa of 6.7.

`O=C(O)CCCCc1cc(=O)oc2c(CN3CCCCC3)c(O)ccc12` gave a pKa of 6.6.

With `CCN(CC)Cc1c(O)ccc2c(CCCCC(=O)O)cc(=O)oc12`, the pKa stood at 6.6.

In turn, `O=C(O)CCCCc1cc(=O)oc2cc(O)ccc12` registered a pKa of 7.8.

The pKa is the pH at which an ionisable group is half protonated.
